Reference: the supplement of paper PMC7214452

Assays:
Assay in all cases: normalized area under the dose-response curve (viability relative to DMSO control) (fraction); higher = less sensitive (more viable cells)
Conditions in all cases: exposure time not given
[1] = tested on: L363 (cancer type: MM)
Description: (§1)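 25 myeloma and 15 non-Hodgkin lymphoma cell lines were exposed to each of 76 drugs as 7-point log dilutions (0.01 nM–10 µM) in duplicate. Viability was read with CellTiter-Glo and normalised to DMSO (0.1%) and staurosporine (10 µM) plate controls. Normalised AUC was calculated by the trapezoidal method relative to the negative control.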

[2] = tested on: My-La (cancer type: TCL)
Description: as §1

[3] = tested on: KMS28PE (cancer type: MM)
Description: as §1

[4] = tested on: SR-786 (cancer type: TCL)
Description: as §1

[5] = tested on: KMS28BM (cancer type: MM)
Description: as §1

[6] = tested on: Mino (cancer type: Mantle)
Description: as §1

[7] = tested on: OCI-MY5 (cancer type: MM)
Description: as §1

[8] = tested on: SU-DHL6 (cancer type: DLBCL)
Description: as §1

[9] = tested on: Granta-519 (cancer type: Mantle)
Description: as §1

[10] = tested on: EJM (cancer type: MM)
Description: as §1

[11] = tested on: Karpas-299 (cancer type: TCL)
Description: as §1

[12] = tested on: OPM2 (cancer type: MM)
Description: as §1

[13] = tested on: MM1.R (cancer type: MM)
Description: as §1

[14] = tested on: KMS11 (cancer type: MM)
Description: as §1

[15] = tested on: U266 (cancer type: MM)
Description: as §1

[16] = tested on: MM1.S (cancer type: MM)
Description: as §1

[17] = tested on: OCI-LY1 (cancer type: DLBCL)
Description: as §1

[18] = tested on: SKMM2 (cancer type: MM)
Description: as §1

[19] = tested on: KMS34 (cancer type: MM)
Description: as §1

[20] = tested on: NCI-H929 (cancer type: MM)
Description: as §1

[21] = tested on: Se-Ax (cancer type: TCL)
Description: as §1

[22] = tested on: XG2 (cancer type: MM)
Description: as §1

[23] = tested on: OCI-MY5/CRBN (cancer type: MM)
Description: as §1

[24] = tested on: SU-DHL1 (cancer type: TCL)
Description: as §1

[25] = tested on: HuT 78 (cancer type: TCL)
Description: as §1

[26] = tested on: OCI-LY19 (cancer type: DLBCL)
Description: as §1

[27] = tested on: LP1 (cancer type: MM)
Description: as §1

[28] = tested on: SU-DHL2 (cancer type: DLBCL)
Description: as §1

[29] = tested on: OCI-MY7 (cancer type: MM)
Description: as §1

[30] = tested on: RPMI 8226 (cancer type: MM)
Description: as §1

[31] = tested on: KMS26 (cancer type: MM)
Description: as §1

[32] = tested on: KMS12PE (cancer type: MM)
Description: as §1

[33] = tested on: FR4 (cancer type: MM)
Description: as §1

[34] = tested on: JJN3 (cancer type: MM)
Description: as §1

[35] = tested on: OCI-MY5/Vec (cancer type: MM)
Description: as §1

[36] = tested on: OCI-LY3 (cancer type: DLBCL)
Description: as §1

[37] = tested on: KMS18 (cancer type: MM)
Description: as §1

[38] = tested on: JeKo-1 (cancer type: Mantle)
Description: as §1

[39] = tested on: AMO1 (cancer type: MM)
Description: as §1

[40] = tested on: JVM2 (cancer type: Mantle)
Description: as §1

Row | Structure (SMILES) | normalized area under the dose-response curve [1] | normalized area under the dose-response curve [2] | normalized area under the dose-response curve [3] | normalized area under the dose-response curve [4] | normalized area under the dose-response curve [5] | normalized area under the dose-response curve [6] | normalized area under the dose-response curve [7] | normalized area under the dose-response curve [8] | normalized area under the dose-response curve [9] | normalized area under the dose-response curve [10] | normalized area under the dose-response curve [11] | normalized area under the dose-response curve [12] | normalized area under the dose-response curve [13] | normalized area under the dose-response curve [14] | normalized area under the dose-response curve [15] | normalized area under the dose-response curve [16] | normalized area under the dose-response curve [17] | normalized area under the dose-response curve [18] | normalized area under the dose-response curve [19] | normalized area under the dose-response curve [20] | normalized area under the dose-response curve [21] | normalized area under the dose-response curve [22] | normalized area under the dose-response curve [23] | normalized area under the dose-response curve [24] | normalized area under the dose-response curve [25] | normalized area under the dose-response curve [26] | normalized area under the dose-response curve [27] | normalized area under the dose-response curve [28] | normalized area under the dose-response curve [29] | normalized area under the dose-response curve [30] | normalized area under the dose-response curve [31] | normalized area under the dose-response curve [32] | normalized area under the dose-response curve [33] | normalized area under the dose-response curve [34] | normalized area under the dose-response curve [35] | normalized area under the dose-response curve [36] | normalized area under the dose-response curve [37] | normalized area under the dose-response curve [38] | normalized area under the dose-response curve [39] | normalized area under the dose-response curve [40]
1 | N#CC[C@H](C1CCCC1)n1cc(-c2ncnc3[nH]ccc23)cn1 [Ruxolitinib] | 0.863 | 0.775 | 0.879 | 0.83 | 0.913 | 0.983 | 0.853 | 0.928 | 0.925 | 0.886 | 0.742 | 0.931 | 0.85 | 0.87 | 0.833 | 0.91 | 0.997 | 0.958 | 0.708 | 0.91 | 0.828 | 0.804 | 0.993 | 0.713 | 0.853 | 0.972 | 0.861 | 0.959 | 0.89 | 0.997 | 0.802 | 0.91 | 0.927 | 0.894 | 0.898 | 0.944 | 0.978 | 1.01 | 0.911 | 0.774
2 | O=C(/C=C\n1cnc(-c2cc(C(F)(F)F)cc(C(F)(F)F)c2)n1)NNc1cnccn1 [Selinexor] | 0.153 | 0.469 | 0.41 | 0.306 | 0.62 | 0.507 | 0.151 | 0.789 | 0.705 | 0.389 | 0.553 | 0.411 | 0.23 | 0.126 | 0.415 | 0.18 | 0.634 | 0.598 | 0.313 | 0.25 | 0.483 | 0.256 | 0.105 | 0.277 | 0.227 | 0.38 | 0.446 | 0.697 | 0.13 | 0.424 | 0.42 | 0.47 | 0.703 | 0.468 | 0.0963 | 0.643 | 0.446 | 0.43 | 0.182 | 0.407
3 | CNC(=O)c1cc(Oc2ccc(NC(=O)Nc3ccc(Cl)c(C(F)(F)F)c3)cc2)ccn1 [Sorafenib] | 0.578 | 0.836 | 0.752 | 0.824 | 0.611 | 0.872 | 0.459 | 0.937 | 0.877 | 0.663 | 0.812 | 0.539 | 0.61 | 0.535 | 0.45 | 0.57 | 0.913 | 0.56 | 0.239 | 0.57 | 0.655 | 0.543 | 0.589 | 0.576 | 0.704 | 0.873 | 0.495 | 0.901 | 0.59 | 0.546 | 0.634 | 0.6 | 0.594 | 0.435 | 0.499 | 0.955 | 0.471 | 0.922 | 0.578 | 0.747
4 | CCN(CC)CCNC(=O)c1c(C)[nH]c(/C=C2\C(=O)Nc3ccc(F)cc32)c1C [Sunitinib] | 0.648 | 0.772 | 0.519 | 0.652 | 0.739 | 0.761 | 0.576 | 0.875 | 0.863 | 0.587 | 0.722 | 0.56 | 0.61 | 0.641 | 0.698 | 0.58 | 0.818 | 0.734 | 0.459 | 0.56 | 0.69 | 0.46 | 0.816 | 0.541 | 0.536 | 0.794 | 0.651 | 0.8 | 0.72 | 0.538 | 0.714 | 0.7 | 0.681 | 0.638 | 0.82 | 0.892 | 0.665 | 0.729 | 0.519 | 0.605
